Test results taken from ChEMBL document CHEMBL1131876, “Revised structure of a homonojirimycin isomer from Aglaonema treubii: first example of a naturally occurring alpha-homoallonojirimycin” (Bioorg Med Chem Lett, 1999).
pIC50: −log10 of the molar value.

What was measured:
[1] = target: T1, Alpha-galactosidase A (Rattus norvegicus, UniProt D3ZJF9); test: Inhibitory activity against alpha-galactosidase from rat epididymis.
T1 sequence (D3ZJF9 whole entry): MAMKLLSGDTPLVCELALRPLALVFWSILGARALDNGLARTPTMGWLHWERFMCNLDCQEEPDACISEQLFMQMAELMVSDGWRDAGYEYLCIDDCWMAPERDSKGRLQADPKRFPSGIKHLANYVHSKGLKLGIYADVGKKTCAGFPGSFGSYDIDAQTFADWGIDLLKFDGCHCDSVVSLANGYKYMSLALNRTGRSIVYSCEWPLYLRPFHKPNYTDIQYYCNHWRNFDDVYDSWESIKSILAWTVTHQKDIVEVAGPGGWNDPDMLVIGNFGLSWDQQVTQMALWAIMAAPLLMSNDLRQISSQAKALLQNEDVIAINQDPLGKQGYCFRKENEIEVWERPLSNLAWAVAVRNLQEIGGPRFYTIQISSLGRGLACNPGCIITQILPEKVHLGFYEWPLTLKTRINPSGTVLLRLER

[2] = target: T2, Beta-galactosidase (Bos taurus, UniProt Q58D55); test: Inhibitory activity against beta-galactosidase from bovine liver
T2 sequence (Q58D55 whole entry): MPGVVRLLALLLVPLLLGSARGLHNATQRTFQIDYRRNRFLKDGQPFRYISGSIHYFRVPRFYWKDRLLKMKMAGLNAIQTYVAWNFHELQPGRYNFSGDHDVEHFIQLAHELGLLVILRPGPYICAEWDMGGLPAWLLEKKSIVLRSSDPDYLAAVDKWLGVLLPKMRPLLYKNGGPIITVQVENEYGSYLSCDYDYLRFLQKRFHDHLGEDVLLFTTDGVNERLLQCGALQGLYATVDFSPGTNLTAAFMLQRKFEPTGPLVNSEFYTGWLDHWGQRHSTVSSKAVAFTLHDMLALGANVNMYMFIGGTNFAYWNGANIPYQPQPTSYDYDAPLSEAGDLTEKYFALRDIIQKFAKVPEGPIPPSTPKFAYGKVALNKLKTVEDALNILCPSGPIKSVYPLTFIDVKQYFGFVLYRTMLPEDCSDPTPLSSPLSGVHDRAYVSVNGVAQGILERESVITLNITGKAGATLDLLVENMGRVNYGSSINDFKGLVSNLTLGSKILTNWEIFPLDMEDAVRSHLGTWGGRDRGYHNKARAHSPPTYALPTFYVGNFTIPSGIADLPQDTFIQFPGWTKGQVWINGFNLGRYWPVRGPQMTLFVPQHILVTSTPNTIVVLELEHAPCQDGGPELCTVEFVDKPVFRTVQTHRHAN

pIC50 [1] | pIC50 [2] | SMILES
5.35 | – | OCC1NC(CO)[C@H](O)[C@@H](O)[C@@H]1O (stereo partly drawn)
4.17 | 3.80 | OC[C@H]1N[C@H](CO)[C@@H](O)[C@@H](O)C1O (single isomer, unassigned)
